Data as given in PMC4109680, “Identification and Preclinical Pharmacology of the γ-Secretase Modulator BMS-869780” (International Journal of Alzheimer's Disease, 2014).

Test system: rat brain Aβ
Test: Rat brain Aβ peptides after oral dose (4-plex immunoassay and Aβ1-x)
Assay type: in vivo
Conditions: 24 hours
Description: IC50 determinations for Aβ1-42 and Aβ1-40 in H4-APPsw cultures in 384-well format were determined using homogeneous time-resolved fluorescence immunoassays as previously described. The principle of these assays is illustrated in Figures 1(c) and 1(d). In other experiments using H4-APPsw cultures, Aβ was quantified by ELISA; for Aβ1-42 the combination of monoclonal antibodies was 26D6 and 565-HRP; for Aβ1-40 it was TSD and 26D6-HRP, and for Aβ1-x it was 4G8 and 26D6-HRP. In some experiments a novel 4-plex Aβ electrochemiluminescence immunoassay was used (Mesoscale Discovery catalog number N45ZA-1). Briefly, the 4-plex was carried out in 96-well format, with 4 separate spots of capture antibodies in each well. The 96-well plates were prepared by the manufacturer, with spots of monoclonal antibodies for Aβ1-42, Aβ1-40, and Aβ1-38, and an additional fourth spot of streptavidin in each well. Plates were initially incubated with blocking buffer (5% BSA in phosphate buffered saline, 200 μL per well) for 2 hours at ambient temperature and then with D2A6H-biotin conjugate (50 ng/mL in 1% BSA, phosphate buffered saline, 25 μL per well) for 1 hour. Plates were then rinsed with phosphate buffered saline before addition of experimental samples for determination of Aβ1-42, Aβ1-40, Aβ1-38, and Aβ1-37 levels, following the manufacturer's instructions as for the Aβ 3-plex kit (catalog number K15148E-1). Rat brain extracts for use in the 4-plex assay were made in 0.2% diethylamine, as previously described. For detection of rat Aβ peptides in the 4-plex (Figure 5), 252Q6-sulfo-tag conjugate was used, and for detection of human Aβ peptides from cell cultures 6E10-sulfo-tag conjugate was used. For Aβ in transiently transfected PS1/PS2 dKO fibroblasts, Aβ1-42 was quantified using an ELISA kit (WACO), and Aβ1-40 was quantified by ELISA as described above for H4-APPsw cultures. For triple transgenic mice (3xTg; [63]), human transgenic Aβ1-42 was assayed in brain homogenates using an ELISA kit (WACO). For the rat and mouse experiments illustrated in Figures 7 and 8, brain samples were prepared by solid phase extraction, and endogenous rat brain Aβ1-42 and Aβ1-40 were quantified by ELISA as previously described for wild type mice. For brain extracts made using solid phase extraction, calibration of Aβ was relative, based on the approximately linear response of the assay in the range tested. For brain extracts made in 0.2% diethylamine, Aβ1-42, Aβ1-40, Aβ1-38, and Aβ1-37 concentrations in brain and cell culture samples were determined by fitting the results of immunoassays against calibration curves derived from a range of dilutions of the corresponding synthetic peptides on each assay plate using a quadratic curve fit (Graphpad Prizm 5.0). Aβ1-x was calibrated in the same way against synthetic Aβ1-40 peptide. Results were expressed in units of pM, corrected for sample dilution.
Rats were given oral doses of BMS-869780, and levels of brain Aβ, βCTF, and αCTF were determined 24 hours later. For comparison, BMS-698861 was dosed in a separate experiment and samples were taken 5 hours later. […] (c) Rat brain βCTF was detected by western blotting of immunoprecipitates from samples of the same rat brains used for Aβ determinations. […] (e) and (f) quantification of western blots shown in (c) and (d), respectively, expressed relative to percent of average level of CTF in vehicle-treated rats. […]

SMILES: COc1cc(Nc2nc3n(n2)CCCC[C@H]3c2ccc(F)cc2)ccc1-n1cnc(Cl)c1 [BMS-869780]
- rat brain Aβ1-37 and Aβ1-38 (oral doses 1.9-235 mg/kg): increased
- rat brain Aβ1-40 and Aβ1-42 (oral doses 1.9-235 mg/kg): decreased
- rat brain Aβ1-x (oral doses): no significant decrease
- sum total of brain Aβ1-40, Aβ1-42, Aβ1-38 and Aβ1-37 (oral doses): no significant change in overall Aβ levels
